No end group written: not given here. *: point of attachment. Biotin = O=C1N[C@H]2[C@H](CS[C@H]2CCCCC(=O)*)N1
Key:
CD147–β2AR complex = experiment: BRET between CD147-Rluc and β2AR-YFP; format: cell-based, human; settings: HEK293 cells
Protocol: HEK293 cells (2 × 10^5 per well of a 6-well plates) were transfected with 2 ng plasmid DNA coding for the BRET donor (CD147-Luc, CD147ΔD2-Luc) and increasing amounts of BRET acceptor plasmids (β2-YFP, CCR5-YFP; 0–400 ng per well). Twenty-four hours after transfection, cells were resuspended in Hank's balanced salt solution and distributed in 96-well plates (Perkin-Elmer plates; 10^5 cells per well). After addition of the luciferase substrate, coelenterazine h (5 μM final concentration), luminescence at 485 nm and fluorescence at 530 nm were measured simultaneously in a Mithras LB940 Plate Reader. The BRET ratio was calculated as: ((emission at 530 nm/emission at 485 nm)−(background at 530 nm/background at 485 nm)), where background corresponds to signals in cells expressing the Rluc fusion protein alone under the same experimental conditions. For better readability, results were expressed in milli-BRET units (mBRET), 1 mBRET corresponding to the BRET ratio multiplied by 1000. BRET ratios were plotted as a function of ([YFP-YFP0])/(Rluc), where YFP is the fluorescence signal at 530 nm after excitation at 485 nm, and Rluc the signal at 485 nm after addition of coelenterazine h. YFP0 and Rluc0 correspond to the same values in cells expressing the Rluc fusion protein alone. […]

[1] = target: juxta-membrane cytosolic portion of CD44; experiment: Surface plasmon resonance, immobilized CD44 juxta-membrane peptide; format: binding; settings: SPR, non-reducing buffer, BIAcore T200, read-out: dissociation constant (Kd)
Protocol: (§1) For SPR experiments, the fusion proteins GST-Actn4, GST alone or the GST-FERM domain of ezrin used as a control were diluted either in a non-reducing (PBS, 0.02% Tween-20) or a reducing (10 mM HEPES, 150 mM NaCl, 1 mM EDTA, 1 mM dithiothreitol, 0.005% Tween-20) running buffer. To control the impact of these buffers on the dimerization status of Actn4, Actn4-GST or GST alone as a control (final concentration 100 nM) were incubated for 30 min with 250 μM freshly prepared solution of bissulfosuccinimidyl suberate crosslinker, then separated on SDS–PAGE gels and transferred to nitrocellulose to analyse their electrophoretic migration by immunoblot. Interaction studies between α-Actn4 and CD147 were performed on a BIAcore T200 Instrument (BIAcore Life Sciences, GE Healthcare Europe). Streptavidin-coated sensor chips (Series S sensor chip SA; GE Healthcare) were used to capture a biotinylated peptide encoding the cytosolic sequence of CD147 (Biotin-[…]) or the juxta-membrane region of CD44 (Biotin-NSRRRCGQKKKLVINSG), purchased from Proteogenix, at a flow rate of 5 μl min^−1 in the non-reducing or the reducing running buffer. The density was controlled at an increased response level of 630 and 286 response units (RUs), for CD147 and CD44, respectively depending on molecular weight. […] Output sensorgrams were analysed using the BIAevaluation 4.1.1 Software.

cytosolic tail of CD147 = experiment: Surface plasmon resonance, immobilized CD147 cytosolic peptide; format: binding; settings: SPR, non-reducing buffer
Protocol: as §1

[2] = target: T1, GST-coupled four-point-one, ezrin, radixin, moesin (FERM) domain of ezrin (human, UniProt P15311 2-296); experiment: SPR; BIAcore T200, biotinylated peptides captured on streptavidin chip (630 RU CD147, 286 RU CD44), GST fusions as analytes, non-reducing buffer (PBS, 0.02% Tween-20), 25 μl/min, 60 s association, 60 s dissociation; settings: both partners purified
T1 construct: also called GST-FERM domain of ezrin; ezrin FERM domain in fusion with GST

[3] = target: T2, recombinant glutathione-S-transferase (GST)–Actn4 fusion protein (human, UniProt O43707 1-911); experiment: as above; settings: both partners purified
T2 construct: also called Actn4-GST; source: recombinant, purified

[4] = target: T2, recombinant glutathione-S-transferase …; experiment: SPR; BIAcore T200, biotinylated peptide captured on streptavidin chip, GST-Actn4 as analyte, reducing buffer (10 mM HEPES, 150 mM NaCl, 1 mM EDTA, 1 mM dithiothreitol, 0.005% Tween-20); apparent affinity; settings: both partners purified

T2 sequence (O43707 whole entry, the tested form may be a part): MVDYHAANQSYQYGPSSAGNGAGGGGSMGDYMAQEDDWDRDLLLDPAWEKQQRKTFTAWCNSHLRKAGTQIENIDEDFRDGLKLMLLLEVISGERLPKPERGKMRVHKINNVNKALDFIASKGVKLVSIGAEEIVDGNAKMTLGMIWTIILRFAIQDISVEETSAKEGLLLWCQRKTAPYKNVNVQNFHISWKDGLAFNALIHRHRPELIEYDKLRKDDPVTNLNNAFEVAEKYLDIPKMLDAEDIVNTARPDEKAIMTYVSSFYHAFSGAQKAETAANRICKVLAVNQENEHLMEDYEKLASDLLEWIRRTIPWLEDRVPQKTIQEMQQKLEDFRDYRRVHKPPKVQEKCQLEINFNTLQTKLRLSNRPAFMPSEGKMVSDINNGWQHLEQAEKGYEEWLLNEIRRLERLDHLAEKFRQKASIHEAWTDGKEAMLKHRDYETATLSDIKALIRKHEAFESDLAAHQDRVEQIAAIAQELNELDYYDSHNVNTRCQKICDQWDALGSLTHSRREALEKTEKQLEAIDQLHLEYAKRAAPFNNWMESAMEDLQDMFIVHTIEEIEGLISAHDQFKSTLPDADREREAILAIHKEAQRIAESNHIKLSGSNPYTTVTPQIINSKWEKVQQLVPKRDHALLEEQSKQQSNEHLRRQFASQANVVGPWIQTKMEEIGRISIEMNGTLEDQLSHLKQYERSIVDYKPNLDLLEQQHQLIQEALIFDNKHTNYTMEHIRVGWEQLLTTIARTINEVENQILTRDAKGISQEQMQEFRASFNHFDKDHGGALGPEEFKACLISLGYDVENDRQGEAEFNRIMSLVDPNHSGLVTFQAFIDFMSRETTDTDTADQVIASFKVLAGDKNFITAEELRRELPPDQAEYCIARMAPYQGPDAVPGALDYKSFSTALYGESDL
T1 sequence (P15311 2-296): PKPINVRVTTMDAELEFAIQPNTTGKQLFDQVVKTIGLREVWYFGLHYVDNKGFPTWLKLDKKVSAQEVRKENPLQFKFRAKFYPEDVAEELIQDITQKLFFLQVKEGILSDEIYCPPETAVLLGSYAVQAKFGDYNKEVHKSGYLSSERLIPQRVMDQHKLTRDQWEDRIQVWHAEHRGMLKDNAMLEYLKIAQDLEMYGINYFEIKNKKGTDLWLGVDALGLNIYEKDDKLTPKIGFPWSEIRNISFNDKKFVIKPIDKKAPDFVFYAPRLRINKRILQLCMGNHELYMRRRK

Molecule: CC(C)NCC(O)c1ccc(O)c(O)c1 (centres unmarked) [isoproterenol]
- BRET signal between CD147 and β2AR (CD147–β2AR complex; 2 ng CD147-Rluc, 20 ng β2AR-YFP, isoproterenol 10 μM, read every 2 min for 20 min, mean±s.e.m., n=3, representative of four experiments): reduced

Molecule: CC(C)NCC(O)COc1cccc2ccccc12 (centres unmarked) [propranolol]
- effect on isoproterenol-induced BRET reduction (CD147–β2AR complex; 10 μM isoproterenol in combination with 10 μM propranolol, 20 min): This effect was inhibited

Molecule: GST-coupled four-point-one, ezrin, radixin, moesin (FERM) domain of ezrin: GST-FERM domain of ezrin used as a control
- Kd [1]: 4.3 ± 0.1 nM
- interaction with immobilized CD147 peptide (cytosolic tail of CD147): poorly interacted with the CD147 peptide

B1: biotinylated peptide of the juxta-membrane region of CD44 (peptide)
peptide: Biotin-NSRRRCGQKKKLVINSG
notes: also called cytosolic tail of CD44; juxta-membrane cytosolic portion of CD44; source: synthetic peptide, bought: ProteoGenix
- Kd [2]: 4.3 ± 0.1 nM
- Kd [3]: 159 ± 43 nM

B2: biotinylated peptide encoding the cytosolic sequence of CD147 (peptide)
peptide: Biotin-AYDKRRKPEDVLDDDDAGSAPLKSSGQHQNDKGKNVRQRNSS
notes: also called CD147-CT; CD147 peptide; source: synthetic peptide, bought: ProteoGenix
- Kd [4]: 44600 ± 32500 nM
- Kd [3]: 4 ± 0.01 nM
